Reference: patent US9226927B2, “Gamma secretase inhibitors” (MERCK SHARP & DOHME CORP., priority 2011, dated 2016)

Target: γ-secretase (Homo sapiens (Human), UniProt P49768)
Assay: γ-secretase membrane assay with Aβ40 ECL immunoassay
Format: biochemical
Details: membranes of 293 cells expressing C99 (SPC99-lon), 37° C. for 1 h, Aβ 40 by ECL immunoassay
Procedure: Gamma-secretase activity was determined as described by Zhang et al. (Biochemistry, 40 (16), 5049-5055, 2001), which is herein incorporated by reference. Activity is expressed either as a percent inhibition or as the concentration of compound producing 50% inhibition of enzyme activity.
The construct SPC99-Ion, which contains the first 18 residues and the C-terminal 99 amino acids of APP carrying the London mutation, has been described (Zhang, L., Song, L., and Parker, E. (1999) J. Biol. Chem. 274, 8966-8972). Upon insertion into the membrane, the 17 amino acid signal peptide is processed, leaving an additional leucine at the N-terminus of Aβ. SPC99-lon was cloned into the pcDNA4/TO vector (Invitrogen) and transfected into 293 cells stably transfected with pcDNA6/TR, which is provided in the T-REx system (Invitrogen). The transfected cells were selected in Dulbecco's modified Eagle's media (DMEM) supplemented with 10% fetal bovine serum, 100 units/mL penicillin, 100 µg/mL streptomycin, 250 µg/mL zeocin, and 5 µg/mL blasticidin (Invitrogen). Colonies were screened for Aβ production by inducing C99 expression with […] tetracycline for 16-20 h and analyzing conditioned media with a sandwich immunoassay (see below). One of the clones, designated as pTRE.15, was used in these studies.
C99 expression in cells was induced with […] tetracycline for 20 h. The cells were pretreated with […] 12-myristate 13-acetate (PMA) and […] brefeldin A (BFA) for 5-6 h at 37 C before harvesting. The cells were washed 3 times with cold phosphate-buffered saline (PBS) and harvested in buffer A containing 20 mM Hepes (pH 7.5), 250 mM sucrose, 50 mM KCl, 2 mM EDTA, 2 mM EGTA, and Complete protease inhibitor tablets (Roche Molecular Biochemicals). The cell pellets were flash-frozen in liquid nitrogen and stored at −70° C. before use.
To make membranes, the cells were resuspended in buffer A and lysed in a nitrogen bomb at 600 psi. The cell lysate was centrifuged at 1500 g for 10 min to remove nuclei and large cell debris. The supernatant was centrifuged at 100000 g for 1 h. The membrane pellet was resuspended in buffer A plus 0.5 M NaCl, and the membranes were collected by centrifugation at 200000 g for 1 h. The salt-washed membrane pellet was washed again in buffer A and centrifuged at 100000 g for 1 h. The final membrane pellet was resuspended in a small volume of buffer A using a Teflon-glass homogenizer. The protein concentration was determined, and membrane aliquots were flash-frozen in liquid nitrogen and stored at −70° C.
To measure γ-secretase activity, membranes were incubated at 37° C. for 1 h in 50 μL of buffer containing 20 mM Hepes (pH 7.0) and 2 mM EDTA. At the end of the incubation, Aβ 40 and Aβ 42 were measured using an electrochemiluminescence (ECL)-based immunoassay. Aβ 40 was identified with antibody pairs TAG-G2-10 and biotin-W02, while Aβ 42 was identified with TAG-G2-11 and biotin-4G8. The ECL signal was measured using an ECL-M8 instrument (IGEN International, Inc.) according to the manufacturer's instructions. The data presented were the means of the duplicate or triplicate measurements in each experiment. The characteristics of γ-secretase activity described were confirmed using more than five independent membrane preparations.

| SMILES | IC50 [nM] |
| --- | --- |
| O=S(=O)(CC[C@@H]1OCC[C@@]2(S(=O)(=O)c3ccc(Cl)cc3)c3c(F)ccc(F)c3OC[C@@H]12)CCn1cccn1 [Compound 4] | 1.4 |
| O=S(=O)(CC[C@@H]1OCC[C@@]2(S(=O)(=O)c3ccc(Cl)cc3)c3c(F)ccc(F)c3OC[C@@H]12)Cc1ccccn1 [Compound 8a] | 1.9 |
| O=S(=O)(CC[C@@H]1OCC[C@@]2(S(=O)(=O)c3ccc(Cl)cc3)c3c(F)ccc(F)c3OC[C@@H]12)Cc1cccnc1 [Compound 8b] | 6.6 |
| O=S(=O)(CC[C@@H]1OCC[C@@]2(S(=O)(=O)c3ccc(Cl)cc3)c3c(F)ccc(F)c3OC[C@@H]12)Cc1ncon1 [Compound 11] | 1.7 |
| Cc1nc(CS(=O)(=O)CC[C@@H]2OCC[C@@]3(S(=O)(=O)c4ccc(Cl)cc4)c4c(F)ccc(F)c4OC[C@@H]23)no1 [Compound 14] | 5.8 |

Continued, values first:

| IC50 [nM] | SMILES |
| --- | --- |
| 18.7 | O=c1ccc(S(=O)(=O)CC[C@@H]2OCC[C@@]3(S(=O)(=O)c4ccc(Cl)cc4)c4c(F)ccc(F)c4OC[C@@H]23)c[nH]1 [Compound 25a] |
| 4.5 | O=S(=O)(CC[C@@H]1OCC[C@@]2(S(=O)(=O)c3ccc(Cl)cc3)c3c(F)ccc(F)c3OC[C@@H]12)c1cccnn1 [Compound 25b] |
| 5.5 | O=S(=O)(CC[C@@H]1OCC[C@@]2(S(=O)(=O)c3ccc(Cl)cc3)c3c(F)ccc(F)c3OC[C@@H]12)c1cnccn1 [Compound 25c] |
| 10.2 | O=S(=O)(CC[C@@H]1OCC[C@@]2(S(=O)(=O)c3ccc(Cl)cc3)c3c(F)ccc(F)c3OC[C@@H]12)c1ccnnc1 [Compound 25d] |
| 6.4 | O=S(=O)(CC[C@@H]1OCC[C@@]2(S(=O)(=O)c3ccc(Cl)cc3)c3c(F)ccc(F)c3OC[C@@H]12)c1ncccn1 [Compound 25e] |
| 2.9 | O=S(=O)(CC[C@@H]1OCC[C@@]2(S(=O)(=O)c3ccc(Cl)cc3)c3c(F)ccc(F)c3OC[C@@H]12)c1ccncn1 [Compound 25f] |
| 12.9 | O=S(=O)(CC[C@@H]1OCC[C@@]2(S(=O)(=O)c3ccc(Cl)cc3)c3c(F)ccc(F)c3OC[C@@H]12)c1cncnc1 [Compound 25g] |
| 16.5 | COc1ccc(S(=O)(=O)CC[C@@H]2OCC[C@@]3(S(=O)(=O)c4ccc(Cl)cc4)c4c(F)ccc(F)c4OC[C@@H]23)cn1 [Compound 25h] |
| 2.8 | O=c1[nH]cccc1S(=O)(=O)CC[C@@H]1OCC[C@@]2(S(=O)(=O)c3ccc(Cl)cc3)c3c(F)ccc(F)c3OC[C@@H]12 [Compound 27a] |
| 18 | Nc1ncccc1S(=O)(=O)CC[C@@H]1OCC[C@@]2(S(=O)(=O)c3ccc(Cl)cc3)c3c(F)ccc(F)c3OC[C@@H]12 [Compound 27b] |
